Measured values: US20160039825A1 (BIOGEN MA INC., priority 2013, published 2016)

These compounds were tested against T1, Human ATX protein (Homo sapiens, UniProt Q13822) (assay: Autotaxin (ATX) assay, FRET with FS-3 substrate). Details: upper bound bins (no greater than 100, 250 or 500 nM); FS-3 2 μM, ATX 1.0 μg/mL.
T1 construct: made in house
Type: biochemical
Excerpt: ATX (Autotaxin) is a 125 KDa glycoprotein with lysophospholipase D (LPLD) activity that generates the bioactive lipid lysophosphatidic acid (LPA) from lysophosphatidylcholine (LPC). The ATX biochemical assay utilizes a FRET (fluorescence resonance energy transfer) technology platform. The fluorescence signal of FRET substrate FS-3 is quenched due to intra-molecular FRET of a fluorophore to a non-fluorescing quencher (Ferguson, C. G., et al., Org Lett. 2006 May 11; 8(10): 2023-2026, which is incorporated by reference in its entirety). ATX catalyzes the hydrolysis of the substrate which separates the dabsyl quencher from the fluorescein reporter, which becomes fluorescent. The reaction is monitored by a SpectraMax M5 (Molecular Devices, Sunnyvale, Calif.) with at excitation wavelength 485 nm and emission wavelength […].
Fatty acid free-BSA (Sigma A8806): 10 mg/mL in H2O, stored at 4° C.
2×ATX assay buffer: 100 mM Tris, 280 mM NaCl, 10 mM KCl, 2 mM CaCl2, 2 mM MgCl2, pH 7.4.
Human ATX protein: expressed and purified in house. Stored at −80° C.
Substrate FS-3 (Echelon, L-2000): 100 μg in 77.74 μL H2O (1 mM stock), stored at −20° C.
384-well flat bottom plates—Corning #3575.
Compound dilution—All compounds were provided at 10 mM in 100% DMSO. In the first well, 2 μL of 10 mM compound was added to 78 μL of DMSO (1:40 dilution). In subsequent wells 3-fold dilution (total 10 dilutions) were performed.
1×ATX assay buffer was made up with a final concentration of 1 mg/mL fatty acid free-BSA using 2×ATX assay buffer, 10 mg/ml fatty acid free-BSA and ddH2O.
ATX protein was diluted with 1×ATX assay buffer to a concentration of 1.32 μg/mL (1.32×). 38 μL was added per well to the assay plate. The final concentration of ATX in the reaction as 1.0 μg/mL.
2 μL per well of compounds was transferred to provide the desired concentration. The plate was centrifuged, then incubated at room temperature for 30 minutes on the shaker.
FS-3 was diluted with 1×ATX assay buffer to a concentration of FS-3 of 10 μM (5×). Then, 10 μL was added per well to the assay plate. The final concentration of FS-3 in the reaction was 2 μM. The plate was centrifuged. The plate was kept shaking at room temperature for 2 hours. Because FS-3 substrate is light sensitive, plates were kept covered and protected from light.
Fluorescence was measured using SpectraMax M5 (excitation at 485 nm/emission at 538 nm, top read).

Row | Structure (SMILES) | IC50
1 | O=C(OCc1cc(C(F)(F)F)cc(C(F)(F)F)c1)N1CCn2nc(N3CCNCC3)cc2C1 [Example 394, 3,5-bis(trifluoromethyl)benzyl 2-(piperazin-1-yl)-6,7-dihydropyrazolo[1,5-a]pyrazine-5(4H)-carboxylate] | ≤ 100 nM
2 | O=C(O)C1CC2CCCC(C1)N2C(=O)c1cc2n(n1)CCN(C(=O)OCc1cc(F)cc(Cl)c1)C2 (stereo not shown) [Example 46, 9-(5-(((3-Chloro-5-fluorobenzyl)oxy)carbonyl)-4,5,6,7-tetrahydropyrazolo[1,5-a]pyrazine-2-carbonyl)-9-azabicyclo[3.3.1]nonane-3-carboxylic acid] | ≤ 100 nM
3 | NC1CN(C(=O)c2cc3n(n2)CCN(C(=O)OCc2cc(Cl)cc(C(F)(F)F)c2)C3)C1 [Example 431] | ≤ 100 nM
4 | CCC1CC(Nc2cc3n(n2)CCCN(C(=O)OCc2cc(C(F)(F)F)cc(C(F)(F)F)c2)C3)CCN1 (stereo not shown) [Example 323] | ≤ 100 nM
5 | O=C(OCc1cc(C(F)(F)F)cc(C(F)(F)F)c1)N1CCn2nc(C3CN4CCC[C@@H]4CO3)cc2C1 (stereo partly drawn) [Example 256, 3,5-bis(trifluoromethyl)benzyl 2-((8aR)-hexahydro-1H-pyrrolo[2,1-c][1,4]oxazin-3-yl)-6,7-dihydropyrazolo[1,5-a]pyrazine-5(4H)-carboxylate] | ≤ 100 nM
6 | O=C(OCc1cc(C(F)(F)F)cc(C(F)(F)F)c1)N1CCn2cc(C(F)(F)F)nc2C1 [Example 127, 3,5-Bis(trifluoromethyl)benzyl 2-(trifluoromethyl)-5,6-dihydroimidazo[1,2-a]pyrazine-7(8H)-carboxylate] | ≤ 100 nM
7 | CN1C2CCCC1CN(C(=O)c1cc3n(n1)CCCN(C(=O)OCc1cc(Cl)cc(C(F)(F)F)c1)C3)C2 [Example 217] | ≤ 100 nM
8 | O=C(OCc1cc(Cl)cc(C(F)(F)F)c1)N1CCCn2nc(C(=O)N3CC4CNCC4C3)cc2C1 (stereo not shown) [Example 170] | ≤ 100 nM
9 | O=C(O)C1CC2CCCC(C1)N2C(=O)c1cc2n(c1)CCCN(C(=O)OCc1cc(Cl)cc(Cl)c1)C2 (stereo not shown) [Example 103] | ≤ 100 nM
10 | O=C(O)C1CC2CCCC(C1)N2C(=O)c1cc2n(n1)CCN(C(=O)OCc1cccc(C(F)(F)F)c1)C2 (stereo not shown) [Example 43, 9-(5-(((3-(Trifluoromethyl)benzyl)oxy)carbonyl)-4,5,6,7-tetrahydropyrazolo[1,5-a]pyrazine-2-carbonyl)-9-azabicyclo[3.3.1]nonane-3-carboxylic acid] | ≤ 100 nM
11 | O=C(O)C1CC2CCCC(C1)N2C(=O)c1cc2n(n1)CCCN(C(=O)NCc1cc(Cl)cc(Cl)c1)C2 (stereo not shown) [Example 49, 9-(5-((3,5-Dichlorobenzyl)carbamoyl)-5,6,7,8-tetrahydro-4H-pyrazolo[1,5-a][1,4]diazepine-2-carbonyl)-9-azabicyclo[3.3.1]nonane-3-carboxylic acid] | ≤ 100 nM
12 | O=C(OCc1cc(C(F)(F)F)cc(C(F)(F)F)c1)N1CCCn2nc(-c3ccncc3)cc2C1 [Example 367] | ≤ 100 nM
13 | CON(C)C(=O)c1cc2n(n1)CCCN(C(=O)OCc1cc(C(F)(F)F)cc(C(F)(F)F)c1)C2 [Example 144, 3,5-Bis(trifluoromethyl)benzyl 2-(methoxy(methyl)carbamoyl)-7,8-dihydro-4H-pyrazolo[1,5-a][1,4]diazepine-5(6H)-carboxylate] | ≤ 100 nM
14 | CC1CNCC(C)N1C(=O)c1cc2n(n1)CCCN(C(=O)OCc1cc(C(F)(F)F)cc(C(F)(F)F)c1)C2 (stereo not shown) [Example 249] | ≤ 100 nM
15 | C[C@@H]1CNC[C@H](C)N1C(=O)c1cc2n(n1)CCCN(C(=O)OCc1cc(C(F)(F)F)cc(C(F)(F)F)c1)C2 [Example 163] | ≤ 100 nM
16 | CC(c1cc2n(n1)CCCN(C(=O)OCc1cc(C(F)(F)F)cc(C(F)(F)F)c1)C2)N1CCC(F)CC1 (stereo not shown) [Example 512] | ≤ 100 nM
17 | O=C(OCc1cc(C(F)(F)F)cc(C(F)(F)F)c1)N1CCCn2nc(NC3CC4CCCC(C3)N4)cc2C1 (stereo not shown) [Example 316] | ≤ 100 nM
18 | CN1CCC(c2cc3n(n2)CCCN(C(=O)OCc2cc(C(F)(F)F)cc(C(F)(F)F)c2)C3)C1 (stereo not shown) [Example 385] | ≤ 250 nM
19 | O=C(OCc1cc(Cl)cc(C(F)(F)F)c1)N1CCCn2nc(C3CN4CCCC[C@@H]4CO3)cc2C1 (mixture of isomers) [Example 254, 3-chloro-5-(trifluoromethyl)benzyl 2-((9aR)-octahydropyrido[2,1-c][1,4]oxazin-3-yl)-7,8-dihydro-4H-pyrazolo[1,5-a][1,4]diazepine-5(6H)-carboxylate] | ≤ 100 nM
20 | O=C(NC1=NCCS1)c1cc2n(n1)CCCN(C(=O)OCc1cc(C(F)(F)F)cc(C(F)(F)F)c1)C2 [Example 173] | ≤ 100 nM
21 | Cc1cc(-c2cc3n(n2)CCCN(C(=O)OCc2cc(C(F)(F)F)cc(C(F)(F)F)c2)C3)ccn1 [Example 368] | ≤ 100 nM
22 | CC1OCCN(CC(=O)c2cc3n(n2)CCCN(C(=O)OCc2cc(Cl)cc(C(F)(F)F)c2)C3)C1C (stereo not shown) [Example 266] | ≤ 100 nM
23 | O=C(O)C1CC2CCCC(C1)N2Cc1cc2n(n1)CCCN(C(=O)OCc1cc(C(F)(F)F)cc(C(F)(F)F)c1)C2 (stereo not shown) [Example 297] | ≤ 250 nM
24 | O=C(OCc1cc(Cl)cc(C(F)(F)F)c1)N1CCCn2nc(C3CN4CCC[C@H]4CO3)cc2C1 (mixture of isomers) [Example 251, 3-Chloro-5-(trifluoromethyl)benzyl 2-((8aS)-hexahydro-1H-pyrrolo[2,1-c][1,4]oxazin-3-yl)-7,8-dihydro-4H-pyrazolo[1,5-a][1,4]diazepine-5(6H)-carboxylate] | ≤ 100 nM
25 | CC(C)(C)OC(=O)N1CCN(C(=O)c2cc3n(n2)CCN(C(=O)OCc2cc(Cl)cc(C(F)(F)F)c2)C3)C(C)(C)C1 [Example 475] | ≤ 100 nM

The remaining lines, values ahead:

Row | IC50 | Structure (SMILES)
26 | ≤ 100 nM | CCN1CC2CN(c3cc4n(n3)CCCN(C(=O)OCc3cc(C(F)(F)F)cc(C(F)(F)F)c3)C4)CC2C1 (stereo not shown) [Example 350]
27 | ≤ 500 nM | O=C(OCc1cc(F)cc(C(F)(F)F)c1)N1CCn2cc(C(F)(F)F)nc2C1 [Example 126, 3-Fluoro-5-(trifluoromethyl)benzyl 2-(trifluoromethyl)-5,6-dihydroimidazo[1,2-a]pyrazine-7(8H)-carboxylate]
28 | ≤ 100 nM | CCN1CCN(c2cc3n(n2)CCCN(C(=O)OCc2cc(C(F)(F)F)cc(C(F)(F)F)c2)C3)CC1 [Example 354]
29 | ≤ 100 nM | CC1CN(C(=O)c2cc3n(n2)CCCN(C(=O)OCc2cc(Cl)cc(C(F)(F)F)c2)C3)CC(C)N1 (stereo not shown) [Example 198]
30 | ≤ 100 nM | CC1CNCCN1C(=O)c1cc2n(n1)CCN(C(=O)OCc1cc(C(F)(F)F)cc(C(F)(F)F)c1)C2 (stereo not shown) [Example 423]
31 | ≤ 100 nM | O=C(OCc1cc(C(F)(F)F)cc(C(F)(F)F)c1)N1CCCn2nc(N3CC4CNCC4C3)cc2C1 (stereo not shown) [Example 351]
32 | ≤ 100 nM | CC1(C)CN(C(=O)c2cc3n(n2)CCN(C(=O)OCc2cc(C(F)(F)F)cc(C(F)(F)F)c2)C3)CCN1 [Example 436]
33 | ≤ 100 nM | CC1(C)CNCCN1C(=O)c1cc2n(n1)CCN(C(=O)OCc1cc(Cl)cc(C(F)(F)F)c1)C2 [Example 432]
34 | ≤ 250 nM | CN1CCC(Nc2cc3n(n2)CCCN(C(=O)OCc2cc(C(F)(F)F)cc(C(F)(F)F)c2)C3)CC1 [Example 352, 3,5-bis(trifluoromethyl)benzyl 2-((1-methylpiperidin-4-yl)amino)-7,8-dihydro-4H-pyrazolo[1,5-a][1,4]diazepine-5(6H)-carboxylate]
35 | ≤ 100 nM | O=C(OCc1cc(C(F)(F)F)cc(C(F)(F)F)c1)N1CCCn2nc(N3CCNC4(CC4)C3)cc2C1 [Example 348]
36 | ≤ 500 nM | CCOC(=O)c1cc2n(n1)CCCN(C(=O)OCc1cc(Cl)cc(Cl)c1)C2 [Example 1, 5-(3,5-Dichlorobenzyl) 2-ethyl 7,8-dihydro-4H-pyrazolo[1,5-a][1,4]diazepine-2,5(6H)-dicarboxylate]
37 | ≤ 100 nM | C[C@@H]1CCCN1CC(=O)c1cc2n(n1)CCCN(C(=O)OCc1cc(Cl)cc(C(F)(F)F)c1)C2 [Example 265]
38 | ≤ 100 nM | O=C(OCc1cc(Cl)cc(C(F)(F)F)c1)N1CCCn2nc(C(=O)N3CCNCC3C(F)(F)F)cc2C1 (stereo not shown) [Example 181]
39 | ≤ 100 nM | CCOC(=O)c1nn2c(c1Cl)CN(C(=O)OCc1cc(C(F)(F)F)cc(C(F)(F)F)c1)CCC2 [Example 108, 5-(3,5-Bis(trifluoromethyl)benzyl) 2-ethyl 3-chloro-7,8-dihydro-4H-pyrazolo[1,5-a][1.4]diazepine-2,5(6H)-dicarboxylate]
40 | ≤ 100 nM | O=C(O)C1CNCCN1C(=O)c1cc2n(n1)CCCN(C(=O)OCc1cc(Cl)cc(C(F)(F)F)c1)C2 (stereo not shown) [Example 226]
